Measurements as given in US7084151B2 (Ligand Pharmaceuticals Incorporated, priority 2002, dated 2006).
pEC50, pIC50, pKi: −log10 of the molar value. Like-named read-outs stand apart in the source and are kept apart here.

Legend:
PR [1] = biological target: T1, PR (Homo sapiens, UniProt P06401); assay: Cotransfection assay, PR agonist activity in CV-1 cells; type: cell-based; conditions: for Emax: CV-1, read-out: PR Agonist CV-1 Cells Efficacy
T1 construct: expressed in transfected cells; host or cells: CV-1 cells (African green monkey kidney fibroblasts), transiently transfected
T1 sequence (P06401 1-933): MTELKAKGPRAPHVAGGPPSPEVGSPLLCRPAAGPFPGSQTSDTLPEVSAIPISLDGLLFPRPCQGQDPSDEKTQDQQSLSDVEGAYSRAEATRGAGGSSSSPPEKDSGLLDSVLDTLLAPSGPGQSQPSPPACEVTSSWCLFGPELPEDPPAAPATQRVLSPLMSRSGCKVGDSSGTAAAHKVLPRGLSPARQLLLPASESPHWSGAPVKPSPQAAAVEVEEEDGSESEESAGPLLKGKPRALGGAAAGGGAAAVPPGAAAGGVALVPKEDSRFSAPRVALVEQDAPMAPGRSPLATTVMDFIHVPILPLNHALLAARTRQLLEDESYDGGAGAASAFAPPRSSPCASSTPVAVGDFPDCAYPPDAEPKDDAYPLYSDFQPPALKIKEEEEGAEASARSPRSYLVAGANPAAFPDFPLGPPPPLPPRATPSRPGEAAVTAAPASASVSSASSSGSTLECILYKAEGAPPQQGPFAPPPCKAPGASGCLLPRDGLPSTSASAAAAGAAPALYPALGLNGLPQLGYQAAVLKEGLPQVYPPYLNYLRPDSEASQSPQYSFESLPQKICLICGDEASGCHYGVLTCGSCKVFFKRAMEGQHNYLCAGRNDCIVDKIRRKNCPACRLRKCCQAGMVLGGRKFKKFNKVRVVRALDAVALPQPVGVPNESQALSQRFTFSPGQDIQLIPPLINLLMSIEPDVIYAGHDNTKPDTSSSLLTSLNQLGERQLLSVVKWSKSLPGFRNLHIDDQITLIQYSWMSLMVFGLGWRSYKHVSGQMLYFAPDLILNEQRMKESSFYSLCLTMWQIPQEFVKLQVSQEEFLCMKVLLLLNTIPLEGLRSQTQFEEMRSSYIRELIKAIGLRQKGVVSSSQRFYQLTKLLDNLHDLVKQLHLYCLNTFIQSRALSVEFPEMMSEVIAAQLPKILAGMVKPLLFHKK
Experimental: (§1) Briefly, the cotransfection assays were carried out in CV-1 cells (African green monkey kidney fibroblasts), which were transiently transfected, by the standard calcium phosphate coprecipitation procedure (Berger, et al., J. Steroid Biochem. Mol. Bio. 1992, 41, 733–738) with the Plasmid containing receptor, MTV-LUC reporter, pRS-β-Gal, and filler DNA (Rous sarcoma virus chloramphenicol acetyltransferase). […] All the cotransfection experiments were carried out in 96-well plates by automation (Beckman Biomomek automated workstation).

hPR-A = biological target: T2, hPR-A (Homo sapiens, UniProt P06401); assay: Receptor competitive binding assay; conditions: read-out: PR Binding Ki
T2 sequence (P06401 1-769 isoform P06401-2): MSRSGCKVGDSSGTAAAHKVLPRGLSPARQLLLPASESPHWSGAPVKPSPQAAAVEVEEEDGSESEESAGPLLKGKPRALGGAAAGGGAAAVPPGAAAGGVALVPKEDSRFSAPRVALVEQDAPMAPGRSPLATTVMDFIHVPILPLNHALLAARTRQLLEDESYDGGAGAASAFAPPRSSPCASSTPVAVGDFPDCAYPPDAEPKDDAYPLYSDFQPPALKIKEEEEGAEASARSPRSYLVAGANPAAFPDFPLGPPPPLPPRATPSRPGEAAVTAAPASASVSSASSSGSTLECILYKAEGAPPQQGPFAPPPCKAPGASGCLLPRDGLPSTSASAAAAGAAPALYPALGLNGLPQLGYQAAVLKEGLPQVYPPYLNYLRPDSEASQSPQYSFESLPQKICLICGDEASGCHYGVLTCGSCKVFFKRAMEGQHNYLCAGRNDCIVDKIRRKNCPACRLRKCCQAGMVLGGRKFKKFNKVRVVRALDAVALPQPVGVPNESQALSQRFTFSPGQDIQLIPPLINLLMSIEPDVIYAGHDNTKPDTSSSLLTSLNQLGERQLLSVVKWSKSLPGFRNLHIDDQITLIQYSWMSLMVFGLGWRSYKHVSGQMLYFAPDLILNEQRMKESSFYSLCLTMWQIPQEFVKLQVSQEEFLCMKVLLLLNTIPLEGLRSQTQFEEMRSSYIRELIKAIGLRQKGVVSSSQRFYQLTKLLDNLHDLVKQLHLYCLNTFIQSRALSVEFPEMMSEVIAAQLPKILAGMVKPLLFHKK
Text: The preparation of receptor binding assays for hPR-A was described in literature (Pathirana, et al., Mol. Pharm. 1995, 47, 630–635.)

PR [2] = biological target: T1, PR; assay: Cotransfection assay, PR antagonist activity in CV-1 cells; type: cell-based; conditions: for Emax: percent maximal response relative to reference antagonist, read-out: PR Antagonist CV-1 Cells Efficacy
Experimental: as §1

[3] = CV-1 cells, MTV-LUC reporter, read-out: PR Agonist CV-1 Cells Potency (EC50)
[4] = CV-1 cells, MTV-LUC reporter, read-out: PR Antagonist CV-1 Cells Potency (IC50)

| Emax (PR [1]) | pEC50 (PR [1]; [3]) | pKi (hPR-A) | Emax (PR [2]; CV-1 cells) | pIC50 (PR [2]; [4]) | Structure (SMILES) | pEC50 (PR [1]) | pIC50 (PR [2]) | melting point | PR Agonist CV-1 Cells Efficacy (PR [1]; CV-1 cells, percent maximal response relative to progesterone) |
| --- | --- | --- | --- | --- | --- | --- | --- | --- | --- |
| 48% | 7.42 | 7.13 |  |  | CC1=CC(C)(C)Nc2ccc3c(c21)C(=C1CCCCC1)Oc1c(F)cccc1-3 [Compound 19, 7-fluoro-5-cyclohexylidene-1,2-dihydro-2,2,4-trimethyl-5H-chromeno[3,4-f]quinoline] |  |  |  |  |
| 100% |  |  | < 20% |  | CC(=O)[C@H]1CC[C@H]2[C@@H]3CCC4=CC(=O)CC[C@]4(C)[C@H]3CC[C@]12C [Prog, progesterone, reference compound] |  |  |  |  |
| 70% | 7.46 | 7.66 | < 20% | < 6.00 | CC1=CC(C)(C)Nc2ccc3c(c21)C(=C1C=CCCC1)Oc1c(F)cccc1-3 [Compound 23, 7-fluoro-5-(2-cyclohexenylidene)-1,2-dihydro-2,2,4-trimethyl-5H-chromeno[3,4-f]quinoline] |  |  |  |  |
| 82% | 7.80 | 7.41 | < 20% | < 6.00 | CC1=CC(C)(C)Nc2ccc3c(c21)C(=C1CCCCC1)Oc1c(F)cc(F)cc1-3 [Compound 20, 7,9-difluoro-5-cyclohexylidene-1,2-dihydro-2,2,4-trimethyl-5H-chromeno[3,4-f]quinoline] |  |  |  |  |
| < 20% |  |  | 99% |  | CN(C)c1ccc([C@H]2C[C@]3(C)[C@@H](CC[C@]3(O)CCCO)[C@@H]3CCC4=CC(=O)CCC4=C32)cc1 [ZK299, reference compound] |  |  |  |  |
| 155% | 8.28 | 8.43 | < 20% | < 6.00 | CC1=CC(C)(C)Nc2ccc3c(c21)C(=C1SCCCS1)Oc1c(F)cc(F)cc1-3 [Compound 15, 7,9-difluoro-5-(1,3-dithia-2-cyclohexylidene)-1,2-dihydro-2,2,4-trimethyl-5H-chromeno[3,4-f]quinoline] |  |  |  |  |
| 56% | 7.49 | 7.85 | < 20% | < 6.00 | COc1ccc2c(c1)OC(=C1SCCCS1)c1c-2ccc2c1C(C)=CC(C)(C)N2 [Compound 13, 8-methoxy-5-(1,3-dithia-2-cyclohexylidene)-1,2-dihydro-2,2,4-trimethyl-5H-chromeno[3,4-f]quinoline] |  |  |  |  |
| 107% | 7.96 | 8.37 | < 20% | < 6.00 | CC1=CC(C)(C)Nc2ccc3c(c21)C(=C1SCCCS1)Oc1c(F)cccc1-3 [Compound 17, 7-fluoro-5-(1,3-dithia-2-cyclohexylidene)-1,2-dihydro-2,2,4-trimethyl-5H-chromeno[3,4-f]quinoline] |  |  |  |  |
| 45% | 7.49 |  |  |  | CC1(C)C=Cc2c(ccc3c2C(=C2SCCCS2)Oc2c(F)cccc2-3)N1 [Compound 21, 7-fluoro-5-(1,3-dithia-2-cyclohexylidene)-1,2-dihydro-2,2-dimethyl-5H-chromeno[3,4-f]quinoline] |  |  |  |  |
|  |  |  |  |  | CC#C[C@]1(O)CC[C@H]2[C@@H]3CCC4=CC(=O)CCC4=C3[C@@H](c3ccc(N(C)C)cc3)C[C@@]21C [RU486, mifepristone, reference compound] |  |  |  | na (na = not active (i.e. efficacy of <20 and potency of >1,000)) |

| Structure (SMILES) | Emax (PR [1]) | pEC50 (PR [1]; [3]) | pKi (hPR-A) | Emax (PR [2]; CV-1 cells) | pIC50 (PR [2]; [4]) | pEC50 (PR [1]) | pIC50 (PR [2]) | melting point | PR Agonist CV-1 Cells Efficacy (PR [1]; CV-1 cells, percent maximal response relative to progesterone) |
| --- | --- | --- | --- | --- | --- | --- | --- | --- | --- |
| CC1=CC(C)(C)Nc2ccc3c(c21)C(=C1SCCCS1)Oc1ccc(F)cc1-3 [Compound 10, 9-Fluoro-5-(1,3-dithia-2-cyclohexylidene)-1,2-dihydro-2,2,4-trimethyl-5H-chromeno[3,4-f]quinoline] | 144% |  | 8.20 | < 20% |  | 8.70 | < 6.00 | 120 to 122 °C |  |
